Experimental data published in patent US10455839B2, “Pre-plant biocide uses of aqueous cyanamides” (METBRO DI[…], priority 2015, dated 2019).

What was measured:
[1] = tested on: endo and ecotparasitic nematodes; assay: Soil column drench, nematode control (Example 1, FIG. 2); format: in vivo; conditions: 750 ppm; soil screened free of roots; 15, 30 and 60 days after treatment
Protocol: In situ soil borne pest and disease populations were determined from known commercial locations. These infested soils were commonly of sandy loam or fine sandy loam texture that were screened free of all but the smallest of roots as they were placed into buckets. Buckets were then transported to a single location of deep loamy sand soil where 30″ long by 3″ diameter PVC open-ended pipes had been inserted to a depth of 22″ using a 3″ can auger (FIG. 1). Each soil column was then filled with infested soil to a depth of 22″ using a shovel handle to compress soil density during the soil transfer process.
The surface 8″ of each column remained vacant in order to eventually apply one liter of biocide solution onto each soil column and then determine the amount of time required to fully infiltrate the liter of water. Because infiltration rates varied from 3 hr to 4 days across each different biocide with or without adjuvant each column was used only once. Columns were cleaned and re-inserted to a different nearby location for subsequent tests. As testing proceeded dosage response curves were developed to reveal dosages needed to reach threshold levels for pest impact followed by quantification of the dosage needed to achieve as much as 100% pest kill where possible. […]

[2] = tested on: Meloidogyne incognita race-3; assay: Field Station drench of sandy loam soil infested with root-knot nematode (FIGS. 18-19); format: in vivo
Protocol: Field Station evaluations included sandy loam soil at 10° C. vs 15° C. in adjacent sites. These sites were uniformly infested with Meloidogyne incognita race-3. The first site (10° C.) was drenched with 750 or 1,000 ppm to a depth of 40 cm and planted with carrots 70 DAT. Ten weeks later soil at the second site (15° C.) was drenched with 1,250 or 1,500 ppm and 30 DAT planted with sweet potato slips. Nematode samples were collected at 0-15 and 15-30 cm depths.

F. oxysporum race-4 = assay: Field Station drench of sandy loam soil to be planted to cotton, fungal counts (FIGS. 20-21); format: in vivo, Fusarium oxysporum; conditions: 3,000 or 4,500 ppm drenched to 40 cm; sandy loam at 10° C.; counted 28 and 70 DAT
Protocol: Field Station evaluation in sandy loam soil at 10° C. to be planted to cotton soil was drenched with 3,000 or 4,500 ppm HyCyn to 40 cm depth. F. oxysporum race-4 were identified and counted at 28 DAT (FIG. 20) and 70 DAT (FIG. 21).

[3] = tested on: cotton or occasional nutgrass; assay: Phytotoxicity after drench in cotton field; format: in vivo; conditions: 3,000 or 4,500 ppm; never irrigated field
[4] = tested on: Young almond trees on NEMAGUARD rootstock; assay: Almond replant site soil, potted tree growth (FIGS. 22-23); format: in vivo
From the text: Field Station evaluation involved sandy loam soil at an almond replant site drenched uniformly with 1,000 ppm. Surface soil was collected 60 days later and potted from three treatments, water only, 250 ppm Telone EC and 1000 ppm HyCyn. Young almond trees on NEMAGUARD rootstock were planted to each pot and trees maintained for six months.

[5] = tested on: one-year-old almonds trees; assay: Root system soak of one-year-old almond trees (FIGS. 24-25); format: in vivo; conditions: 750 ppm, 24 hr, entire root systems soaked in a static setting
From the text: Field Station evaluation where root systems of one-year-old almonds trees were placed in concentrations of HyCyn. Intact 1-yr-old trees were separated from their planting pots and placed into buckets containing open solutions of 400; 750; 1,000; 1,250; 1,500; or 3,000 ppm HyCyn for 6, 18 or 24 hr. […] The results are depicted in FIGS. 24 and 25.

[6] = tested on: eight-year-old butternut trees, Juglans cathayensis; assay: Drench of eight-year-old butternut trees, tree kill (FIG. 26); format: in vivo
From the text: Field Station evaluation of eight-year-old butternut trees, Juglans cathayensis, drenched with 2,000 ppm HyCyn within 400 or 800 L water. Two of four trees receiving 400 L solution were not completely killed but four of four trees receiving 800 L of the same solution were killed (FIG. 26).

P. vulnus = assay: Five-day sieve-mist extraction of nematodes from roots and soil after tree drench (FIG. 27); format: in vivo, Pratylenchus vulnus; conditions: 2,000 ppm drench

Structure (SMILES): N#CN [HyCyn, hydrogen cyanamide]
- effect on nematode populations in test soil [1]: elimination of endo and ecotparasitic nematodes
- nematode control ([2]; 750 or 1,000 ppm drenched to 40 cm, sandy loam soil at 10° C., carrots): no nematode control
- nematode control ([2]; 1,250 or 1,500 ppm, sandy loam soil at 15° C., sweet potato): did provide nematode control
- rate needed to halt F. oxysporum (F. oxysporum race-4): highest rate was necessary to halt F. oxysporum
- burning of leaves of cotton or occasional nutgrass [3]: did not cease even five months after treatment
- root rejection component of the replant problem ([4]; 1,000 ppm): provides a remedy for the root rejection component of the replant problem
- tree growth after six months (FIG. 23) ([4]; 1,000 ppm, compared to soil treated with 250 ppm Telone ec or untreated soil): improved growth
- tree growth within 2 months after planting ([4]; soil drenched with 1,000 ppm, collected 60 days later and potted, versus water only): improved growth
- plant biomass at the 6th month ([4]; soil drenched with 1,000 ppm, compared to the untreated): plant biomass differences were greater
- tree survival after root soak [5]: no tree survived or re-initiated growth
- trees not completely killed ([6]; 2,000 ppm within 400 L water): Two of four
- trees killed ([6]; 2,000 ppm within 800 L water): four of four
- kill of soil dwelling nematodes (P. vulnus; beneath the surface 90 cm of treated soil): 99.9%
- kill of P. vulnus from root samples (P. vulnus; root samples, FIG. 27: 30 DAT): kill of all P. vulnus
